{"source": "ChEMBL document CHEMBL3739349", "about": "“Cytotoxic Clerodane Diterpenoids from the Leaves of Casearia grewiifolia” (J Nat Prod, 2015)", "key": {"MCF7": {"system": "MCF7", "experiment": "Cytotoxicity against human MCF7 cells assessed as growth inhibition after 72 hrs by neutral red staining based colorimetric assay", "format": "functional, cell-based", "conditions": "MCF7, 72 h"}, "KB": {"system": "KB", "experiment": "Cytotoxicity against human KB cells assessed as growth inhibition after 72 hrs by neutral red staining based colorimetric assay", "format": "functional, cell-based"}, "[1]": {"experiment": "Cytotoxicity against mouse NIH/3T3 cells assessed as growth inhibition after 72 hrs by neutral red staining based colorimetric assay", "format": "cell-based", "conditions": "NIH3T3, 72 h"}, "[2]": {"experiment": "Cytotoxicity against mouse NIH/3T3 cells assessed as growth inhibition at 100 uM after 72 hrs by neutral red staining based colorimetric assay", "format": "cell-based", "conditions": "nih3t3, 72 h"}, "Lu1": {"system": "Lu1", "experiment": "Cytotoxicity against human Lu1 cells assessed as growth inhibition after 72 hrs by neutral red staining based colorimetric assay", "format": "functional, cell-based", "conditions": "Lu1, 72 h"}, "HepG2": {"system": "HepG2", "experiment": "Cytotoxicity against human HepG2 cells assessed as growth inhibition after 72 hrs by neutral red staining based colorimetric assay", "format": "functional, cell-based", "conditions": "HepG2, 72 h"}}, "data": [{"smiles": "C=CC(=C)CC[C@]1(C)[C@H](C)[C@@H](OC(=O)/C=C/c2ccc(O)cc2)[C@H](O)[C@@]23C(=C[C@H](OC(=O)CCC)C[C@@H]12)[C@H](OC)O[C@H]3OC", "values": [{"measurement": "IC50", "setting": "MCF7", "result": "> 10000", "unit": "nM"}, {"measurement": "IC50", "setting": "KB", "result": 6200, "unit": "nM"}, {"measurement": "IC50", "setting": "[1]", "result": "> 10000", "unit": "nM"}, {"measurement": "Activity", "setting": "[2]", "result": "Non-toxic"}, {"measurement": "IC50", "setting": "Lu1", "result": "> 10000", "unit": "nM"}, {"measurement": "IC50", "setting": "HepG2", "result": 7000, "unit": "nM"}]}, {"smiles": "C=CC(=C)CC[C@]1(C)[C@H](C)[C@@H](OC(=O)/C=C/c2ccc(O)cc2)[C@H](O)[C@@]23C(=C[C@H](OC(=O)CC(C)C)C[C@@H]12)[C@H](OC)O[C@H]3OC(C)=O", "values": [{"measurement": "IC50", "setting": "MCF7", "result": "> 10000", "unit": "nM"}, {"measurement": "IC50", "setting": "KB", "result": "> 10000", "unit": "nM"}, {"measurement": "IC50", "setting": "[1]", "result": "> 10000", "unit": "nM"}, {"measurement": "IC50", "setting": "Lu1", "result": "> 10000", "unit": "nM"}, {"measurement": "IC50", "setting": "HepG2", "result": "> 10000", "unit": "nM"}]}, {"smiles": "C=CC(=C)CC[C@]1(C)[C@H](C)C[C@H](O)[C@@]23C(=C[C@H](OC(=O)CCC)C[C@@H]12)[C@@H](OC(C)=O)O[C@H]3OC(C)=O", "note": "[CASEANIGRESCEN D]", "values": [{"measurement": "IC50", "setting": "MCF7", "result": 800, "unit": "nM"}, {"measurement": "IC50", "setting": "KB", "result": 500, "unit": "nM"}, {"measurement": "IC50", "setting": "[1]", "result": 300, "unit": "nM"}, {"measurement": "IC50", "setting": "Lu1", "result": 900, "unit": "nM"}, {"measurement": "IC50", "setting": "HepG2", "result": 300, "unit": "nM"}]}, {"smiles": "Cc1c2ccncc2c(C)c2c1[nH]c1ccccc12", "note": "[ELLIPTECINE]", "values": [{"measurement": "IC50", "setting": "MCF7", "result": 900, "unit": "nM"}, {"measurement": "IC50", "setting": "KB", "result": 1400, "unit": "nM"}, {"measurement": "IC50", "setting": "[1]", "result": 1300, "unit": "nM"}, {"measurement": "IC50", "setting": "Lu1", "result": 1200, "unit": "nM"}, {"measurement": "IC50", "setting": "HepG2", "result": 1500, "unit": "nM"}]}]}
